{"source": "patent US9340590B2", "about": "(priority 2011, dated 2016)", "test_in_all_cases": "cell-based", "key": {"hNav1.5": {"target": "hNav1.5 (Homo sapiens, UniProt Q14524)", "settings": "IonWorks Quattro, read-out: IWQ Use Nav1.5"}, "hNav1.3": {"target": "hNav1.3 (Homo sapiens, UniProt Q9NY46)", "sequence (Q9NY46 whole entry, looked up)": "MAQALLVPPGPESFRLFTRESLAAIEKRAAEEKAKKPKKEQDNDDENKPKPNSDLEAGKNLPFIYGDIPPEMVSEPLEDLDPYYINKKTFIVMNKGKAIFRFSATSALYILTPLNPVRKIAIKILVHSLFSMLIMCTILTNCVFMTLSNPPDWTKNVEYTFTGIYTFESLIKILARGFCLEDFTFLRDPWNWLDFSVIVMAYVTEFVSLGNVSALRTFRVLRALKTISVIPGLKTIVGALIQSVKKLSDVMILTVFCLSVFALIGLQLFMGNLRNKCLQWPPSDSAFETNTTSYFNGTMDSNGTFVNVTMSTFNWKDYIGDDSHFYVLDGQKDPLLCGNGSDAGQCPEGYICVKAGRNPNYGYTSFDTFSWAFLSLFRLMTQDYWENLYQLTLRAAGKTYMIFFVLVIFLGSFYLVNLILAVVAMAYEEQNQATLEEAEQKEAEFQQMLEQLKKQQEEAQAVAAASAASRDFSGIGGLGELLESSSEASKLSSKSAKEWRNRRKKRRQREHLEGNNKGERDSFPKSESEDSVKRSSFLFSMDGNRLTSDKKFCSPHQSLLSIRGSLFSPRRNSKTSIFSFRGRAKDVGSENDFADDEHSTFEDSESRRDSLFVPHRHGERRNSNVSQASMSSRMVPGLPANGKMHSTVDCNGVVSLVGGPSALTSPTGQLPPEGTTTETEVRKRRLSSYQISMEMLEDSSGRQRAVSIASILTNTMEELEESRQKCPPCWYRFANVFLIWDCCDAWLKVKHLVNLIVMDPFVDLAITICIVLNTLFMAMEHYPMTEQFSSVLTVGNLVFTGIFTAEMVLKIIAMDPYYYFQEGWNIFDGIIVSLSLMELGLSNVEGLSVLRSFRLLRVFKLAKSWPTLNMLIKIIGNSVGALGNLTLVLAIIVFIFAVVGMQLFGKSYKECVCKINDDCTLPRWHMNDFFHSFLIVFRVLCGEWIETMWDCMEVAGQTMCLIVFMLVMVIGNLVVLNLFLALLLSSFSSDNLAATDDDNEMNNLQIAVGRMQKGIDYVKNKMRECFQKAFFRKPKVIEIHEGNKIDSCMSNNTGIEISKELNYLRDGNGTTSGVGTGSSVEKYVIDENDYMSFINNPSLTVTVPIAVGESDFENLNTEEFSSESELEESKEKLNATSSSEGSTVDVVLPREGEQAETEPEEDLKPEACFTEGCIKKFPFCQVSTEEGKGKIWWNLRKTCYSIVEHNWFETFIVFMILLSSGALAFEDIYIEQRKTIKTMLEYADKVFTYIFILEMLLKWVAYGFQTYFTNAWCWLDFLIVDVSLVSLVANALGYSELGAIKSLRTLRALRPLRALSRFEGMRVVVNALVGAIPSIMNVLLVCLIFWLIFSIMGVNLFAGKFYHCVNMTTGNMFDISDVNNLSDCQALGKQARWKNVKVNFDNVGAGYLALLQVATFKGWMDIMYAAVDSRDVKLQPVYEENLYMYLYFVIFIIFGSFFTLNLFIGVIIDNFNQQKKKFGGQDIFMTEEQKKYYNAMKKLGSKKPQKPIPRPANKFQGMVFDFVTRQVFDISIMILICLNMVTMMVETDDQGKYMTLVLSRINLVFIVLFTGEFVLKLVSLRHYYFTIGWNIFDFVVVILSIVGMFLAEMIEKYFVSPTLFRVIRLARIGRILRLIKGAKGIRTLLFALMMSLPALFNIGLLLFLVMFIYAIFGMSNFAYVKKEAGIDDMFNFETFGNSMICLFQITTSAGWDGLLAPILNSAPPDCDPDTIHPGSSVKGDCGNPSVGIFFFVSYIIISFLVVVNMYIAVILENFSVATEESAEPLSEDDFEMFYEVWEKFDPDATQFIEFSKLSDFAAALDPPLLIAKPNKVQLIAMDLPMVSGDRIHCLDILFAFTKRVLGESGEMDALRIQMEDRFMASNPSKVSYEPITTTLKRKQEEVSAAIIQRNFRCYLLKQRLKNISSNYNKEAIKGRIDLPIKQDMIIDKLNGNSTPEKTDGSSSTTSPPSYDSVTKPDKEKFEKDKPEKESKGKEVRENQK", "settings": "IonWorks Quattro, read-out: IWQ Use Nav1.3"}, "hNav1.7": {"target": "hNav1.7 (Homo sapiens, UniProt Q15858)", "sequence (Q15858 whole entry, looked up)": "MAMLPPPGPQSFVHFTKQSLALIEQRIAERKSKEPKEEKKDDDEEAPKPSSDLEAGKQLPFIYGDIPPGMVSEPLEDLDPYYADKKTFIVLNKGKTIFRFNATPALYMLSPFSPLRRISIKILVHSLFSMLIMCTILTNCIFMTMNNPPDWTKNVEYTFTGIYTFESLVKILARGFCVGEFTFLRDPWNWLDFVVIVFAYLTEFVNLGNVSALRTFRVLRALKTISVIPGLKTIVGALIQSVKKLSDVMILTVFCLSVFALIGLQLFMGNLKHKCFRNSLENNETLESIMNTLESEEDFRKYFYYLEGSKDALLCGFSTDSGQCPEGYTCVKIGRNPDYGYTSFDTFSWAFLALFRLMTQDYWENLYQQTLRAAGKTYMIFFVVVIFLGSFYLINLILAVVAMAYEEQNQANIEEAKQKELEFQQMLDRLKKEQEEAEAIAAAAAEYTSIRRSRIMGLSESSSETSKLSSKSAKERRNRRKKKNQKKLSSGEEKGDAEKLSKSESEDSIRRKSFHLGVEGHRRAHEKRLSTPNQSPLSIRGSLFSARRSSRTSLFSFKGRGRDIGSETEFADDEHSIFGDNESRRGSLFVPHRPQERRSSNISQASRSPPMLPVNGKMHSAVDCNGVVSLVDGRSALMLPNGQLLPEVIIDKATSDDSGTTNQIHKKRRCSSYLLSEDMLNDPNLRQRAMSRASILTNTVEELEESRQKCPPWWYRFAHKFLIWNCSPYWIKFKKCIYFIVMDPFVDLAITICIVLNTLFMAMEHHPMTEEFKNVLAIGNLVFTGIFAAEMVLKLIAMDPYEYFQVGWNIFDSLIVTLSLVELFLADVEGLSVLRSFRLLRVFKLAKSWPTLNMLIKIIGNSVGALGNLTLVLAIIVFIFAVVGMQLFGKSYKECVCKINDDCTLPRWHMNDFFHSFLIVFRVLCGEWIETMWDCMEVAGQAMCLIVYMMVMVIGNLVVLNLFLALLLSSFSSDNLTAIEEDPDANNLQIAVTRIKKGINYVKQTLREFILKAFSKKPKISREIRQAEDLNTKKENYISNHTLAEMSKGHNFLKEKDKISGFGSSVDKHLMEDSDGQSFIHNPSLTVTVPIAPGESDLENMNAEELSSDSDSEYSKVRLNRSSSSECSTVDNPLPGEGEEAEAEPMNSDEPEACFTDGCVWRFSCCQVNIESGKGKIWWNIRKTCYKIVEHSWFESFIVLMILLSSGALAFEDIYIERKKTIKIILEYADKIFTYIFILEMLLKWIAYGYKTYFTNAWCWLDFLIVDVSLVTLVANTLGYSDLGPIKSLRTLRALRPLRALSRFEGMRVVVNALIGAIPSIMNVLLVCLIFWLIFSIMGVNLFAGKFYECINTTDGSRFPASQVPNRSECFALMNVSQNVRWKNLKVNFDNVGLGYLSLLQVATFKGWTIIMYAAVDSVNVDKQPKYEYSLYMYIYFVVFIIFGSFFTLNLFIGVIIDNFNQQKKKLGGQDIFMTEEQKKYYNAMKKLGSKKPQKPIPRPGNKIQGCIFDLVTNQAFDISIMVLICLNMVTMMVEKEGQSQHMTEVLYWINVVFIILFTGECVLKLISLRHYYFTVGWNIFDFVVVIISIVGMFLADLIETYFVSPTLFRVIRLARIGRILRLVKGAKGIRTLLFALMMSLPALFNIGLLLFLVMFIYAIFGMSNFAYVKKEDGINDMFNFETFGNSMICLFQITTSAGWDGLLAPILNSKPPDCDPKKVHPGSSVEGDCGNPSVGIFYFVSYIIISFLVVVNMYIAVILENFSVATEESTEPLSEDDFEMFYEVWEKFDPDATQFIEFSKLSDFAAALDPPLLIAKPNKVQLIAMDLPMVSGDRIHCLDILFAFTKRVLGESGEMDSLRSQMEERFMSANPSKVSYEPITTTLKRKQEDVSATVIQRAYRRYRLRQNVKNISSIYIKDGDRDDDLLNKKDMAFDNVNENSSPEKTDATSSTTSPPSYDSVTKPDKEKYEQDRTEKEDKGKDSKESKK", "format": "cell-based", "settings": "IonWorks Quattro, read-out: IWQ Use Nav1.7"}}, "note": "Where two headings read alike, the source gives them in different places. Positions of bridges follow the written chain, without caps; N, C: chain ends. Non-standard residues stand in square brackets, D forms with d. Residues, ends and D or L forms follow the SMILES beside them. NMeF = CN[C@@H](Cc1ccccc1)C(=O)O; NMeL = CN[C@@H](CC(C)C)C(=O)O"}
{"smiles": "CC[C@H](C)[C@@H]1NC(=O)[C@@H]2CSSC[C@@H]3NC(=O)[C@H](C(C)C)NC(=O)[C@H](CC(C)C)NC(=O)[C@H](CC(N)=O)NC(=O)[C@@H]4CCCN4C(=O)[C@H](CCCNC(=N)N)NC(=O)[C@H](CSSC[C@H](NC(=O)[C@@H](N)CC(=O)O)C(=O)N[C@@H](CC(C)C)C(=O)NCC(=O)N(C)[C@@H](CC(C)C)C(=O)N[C@@H](Cc4ccccc4)C(=O)N[C@@H](CCCNC(=N)N)C(=O)N[C@@H](CCCCN)C(=O)N2)NC(=O)[C@H](CSSC[C@@H](C(=O)N[C@@H](CCCCN)C(=O)N[C@@H](Cc2ccc(O)cc2)C(=O)N[C@H](C(=O)N[C@@H](Cc2ccccc2)C(N)=O)C(C)C)NC(=O)[C@H](Cc2c[nH]c4ccccc24)NC(=O)[C@H](CCCCN)NC(=O)[C@H](Cc2c[nH]cn2)NC(=O)[C@H]([C@@H](C)O)NC(=O)[C@H](CCCNC(=N)N)NC(=O)[C@H](CO)NC3=O)NC(=O)[C@H](CCCCN)NC(=O)[C@H](CC(=O)O)NC(=O)[C@H](CC(N)=O)NC(=O)[C@H](CC(=O)O)NC(=O)[C@@H]2CCCN2C1=O", "note": "[compound 628] (H-DCLG[NMeL]FRKCIPDNDKCCRPNLVCSRTHKWCKYVF-NH2; disulfide 2-17, 9-23, 16-30)", "values": [{"measurement": "IC50", "setting": "hNav1.5; use-dependent protocol, hNav1.5", "result": 8.4, "unit": "µM"}, {"measurement": "IC50", "setting": "hNav1.3; use-dependent protocol, hNav1.3", "result": 0.091, "unit": "µM"}, {"measurement": "IC50", "setting": "hNav1.7; use-dependent protocol, hNav1.7", "result": 0.076, "unit": "µM"}]}
{"smiles": "CC[C@H](C)[C@@H]1NC(=O)[C@@H]2CSSC[C@@H]3NC(=O)[C@H](C(C)C)NC(=O)[C@H](CC(C)C)NC(=O)[C@H](CC(N)=O)NC(=O)[C@@H]4CCCN4C(=O)[C@H](CCCNC(=N)N)NC(=O)[C@H](CSSC[C@H](NC(=O)[C@@H](N)CC(=O)O)C(=O)N[C@@H](CC(C)C)C(=O)NCC(=O)N[C@@H](Cc4ccccc4)C(=O)N[C@@H](CCSC)C(=O)N[C@@H](CCCNC(=N)N)C(=O)N[C@@H](CCCCN)C(=O)N2)NC(=O)[C@H](CSSC[C@@H](C(=O)N[C@@H](CCCCN)C(=O)N[C@@H](Cc2ccc(O)cc2)C(=O)N[C@H](C(=O)N[C@@H](Cc2ccccc2)C(N)=O)C(C)C)NC(=O)[C@H](Cc2ccccc2)N(C)C(=O)[C@H](CCCCN)NC(=O)[C@H](Cc2c[nH]cn2)NC(=O)[C@H]([C@@H](C)O)NC(=O)[C@H](CCCNC(=N)N)NC(=O)[C@H](CO)NC3=O)NC(=O)[C@H](CCCCN)NC(=O)[C@H](CC(=O)O)NC(=O)[C@H](CC(N)=O)NC(=O)[C@H](CC(=O)O)NC(=O)[C@@H]2CCCN2C1=O", "note": "[compound 359] (H-DCLGFMRKCIPDNDKCCRPNLVCSRTHK[NMeF]CKYVF-NH2; disulfide 2-17, 9-23, 16-30)", "values": [{"measurement": "IC50", "setting": "hNav1.5; Table 24, use, […]", "result": 18.8, "unit": "µM"}, {"measurement": "IC50", "setting": "hNav1.3; Table 24, use, […]", "result": 7.39, "unit": "µM"}, {"measurement": "IC50", "setting": "hNav1.7; Table 24, use, […]", "result": 19.2, "unit": "µM"}]}
{"smiles": "CC[C@H](C)[C@@H]1NC(=O)[C@@H]2CSSC[C@@H]3NC(=O)[C@H](C(C)C)NC(=O)[C@H](CC(C)C)NC(=O)[C@H](CC(N)=O)NC(=O)[C@@H]4CCCN4C(=O)[C@H](CCCNC(=N)N)NC(=O)[C@H](CSSC[C@H](NC(=O)[C@@H](N)CC(=O)O)C(=O)N[C@@H](CC(C)C)C(=O)NCC(=O)N[C@@H](Cc4ccccc4)C(=O)N[C@@H](CCSC)C(=O)N[C@@H](CCCNC(=N)N)C(=O)N[C@@H](CCCCN)C(=O)N2)NC(=O)[C@H](CSSC[C@@H](C(=O)N[C@@H](CCCCN)C(=O)N[C@@H](Cc2ccc(O)cc2)C(=O)N[C@H](C(=O)N[C@@H](Cc2ccccc2)C(N)=O)C(C)C)NC(=O)[C@H](Cc2c[nH]c4ccccc24)NC(=O)[C@H](CCCCN)NC(=O)[C@H](Cc2cnc[nH]2)NC(=O)[C@H]([C@@H](C)O)NC(=O)[C@H](CCCNC(=N)N)NC(=O)[C@H](CO)NC3=O)NC(=O)[C@H](CCCCN)NC(=O)[C@H](CC(=O)O)NC(=O)[C@H](CC(N)=O)NC(=O)[C@H](CC(=O)O)NC(=O)[C@H](Cc2c[nH]c3ccccc23)NC1=O", "note": "[SEQ ID NO: 171, [Trp11]GpTx-1] (H-DCLGFMRKCIWDNDKCCRPNLVCSRTHKWCKYVF-NH2; disulfide 2-17, 9-23, 16-30)", "values": [{"measurement": "IC50", "setting": "hNav1.5; Use", "result": 9.5, "unit": "µM"}, {"measurement": "IC50", "setting": "hNav1.3; Use", "result": 0.04, "unit": "µM"}, {"measurement": "IC50", "setting": "hNav1.7; Use", "result": 0.07, "unit": "µM"}]}
